These results are taken from publication PMC9764067 (Acta Pharmaceutica Sinica. B, 2022).

For assay [1], the system named is cellular content of cholesterol. In kind it is cell-based.
For assay [2], the system named is EBOVpp. The format is cell-based, Ebola virus.
Assay [3] concerns EBOV-GP/HIV-luc. In kind it is cell-based, Ebola virus.

As to `CCN(CC)CCO[C@H]1CC[C@@]2(C)C(=CC[C@@H]3[C@@H]2CC[C@]2(C)C(=O)CC[C@@H]32)C1` [U18666A], the “cellular content of cholesterol” value in assay [1] is on record as “cholesterol accumulation”. Consider `O=C1Nc2ccc(Cl)cc2[C@@](C#CC2CC2)(C(F)(F)F)O1` [efavirenz], for which the “inhibitory effect by time of drug addition” value in assay [2] is “maintained its inhibitory effect up to 8 hpi”.

Take heparin: the “effect on uptake of viral genomic RNA (virus binding to the cell)” value in assay [3] was “marked inhibition”.
